Two compounds from US20150209366A1, “COMBINATION OF A MACROCYCLIC PROTEASE INHIBITOR OF HCV, A NON-NUCLEOSIDE HCV INHIBITOR AND RITONAVIR” (Janssen Pharmaceuticals, Inc., priority 2012, published 2015) can be followed below.

The nature of data set [1]: Pharmacokinetics of compound (I), alone versus in combination with (III) and ritonavir, healthy subjects. It counts as in vivo, human. Particulars: geometric mean; for Cmax / AUC(0-t): human, in vivo; for AUC(0-t): read-out: AUC24 h. On the procedure: The pharmacokinetic variables for the compound of formula (I) and (III) administered alone where compared when they were co-administered in a combination of (I), (II) and (III). All tables indicate Geometric mean (CV %) pharmacokinetic parameters and might be the result of multiple studies. The compounds are indicated by their respective numbers (I, II or III) in the tables below. A comparison is made between administration of compound of Formula (I) 150 mg alone versus 300 mg compound of formula (III) in combination with 50 mg of compound of Formula (I) and 20 mg of Ritonavir (compound of Formula (II) according to the following protocol. • 150 mg qd (I) given for 14 days to 10 healthy subjects • Washout of 14 days • 50 mg qd (I), 300 mg qd (III), 20 mg qd ritonavir (II) given for 14 days to the same 10 healthy volunteers.

A short description of data set [2]: Pharmacokinetics of compound (III), alone versus in combination with (I) and ritonavir. It counts as in vivo, human. Particulars: geometric mean (CV%); for Cmax / AUC(0-t): human, in vivo; for AUC(0-t): read-out: AUC24 h. On the procedure:
The pharmacokinetic variables for the compound of formula (I) and (III) administered alone where compared when they were co-administered in a combination of (I), (II) and (III). All tables indicate Geometric mean (CV %) pharmacokinetic parameters and might be the result of multiple studies. The compounds are indicated by their respective numbers (I, II or III) in the tables below. A comparison is made between an administration of compound of Formula (III) 1000 mg alone, versus 300 mg compound of formula (III) in combination with 50 mg of compound of Formula (I) and 20 mg of Ritonavir (compound of Formula (II). The results are indicated in table 2 below.

[3] abbreviates: 50 mg (I) + 300 mg (III) + 20 mg RTV qd for 14 days, same 10 healthy volunteers.
The mark [4] stands for this setting: (I) alone, 150 mg qd for 14 days, 10 healthy subjects.
The mark [5] stands for this setting: 300 mg (III) + 50 mg (I) + 20 mg (II) qd.

Each structure is given as a SMILES string.

Regarding `COc1ccc2c(O[C@@H]3C[C@H]4C(=O)N[C@]5(C(=O)NS(=O)(=O)C6CC6)C[C@H]5/C=C\CCCCN(C)C(=O)[C@@H]4C3)cc(-c3nc(C(C)C)cs3)nc2c1C` [I, (1R,4R,6S,15R,17R)-cis-N-[17-[2-(4-isopropylthiazole-2-yl)-7-methoxy-8-methylquinolin-4-yloxy]-13-methyl-2,14-dioxo-3,13-diazatricyclo[13.3.0.0^4,6]octadec-7-ene-4-carbonyl]-(cyclopropyl)sulfonamide], in data set [1] (setting [3]), the Cmin was 375 ng/mL, the Cmax (usually the maximum level reached in the sampled fluid or tissue) was 1460 ng/mL and the AUC(0-t) stood at 20000 ng·h/mL. Besides, in data set [1] (setting [4]), the Cmin worked out at 1405 ng/mL, the Cmax came to 4750 ng/mL and the AUC(0-t) is 71200 ng·h/mL.
For `COc1ccc2c(c1)C=C1Cn3c-2c(C2CCCCC2)c2ccc(cc23)C(=O)NS(=O)(=O)N(C)CCOCCN(C)C1=O` [III], in data set [2] (setting [5]), the Cmin is on record as 0.21 (86%) μg/ml, the Cmax turned out to be 6570 ng/mL and the AUC(0-t) is 52200 ng·h/mL. Also, in data set [2] ((III) alone, 1000 mg bid), the Cmin is 0.16 (42%) μg/ml, the Cmax amounted to 5220 ng/mL and the AUC(0-t) was 40100 ng·h/mL.
